According to article PMC10065276, “Enhanced therapeutic window for antimicrobial Pept-ins by investigating their structure-activity relationship” (PLOS ONE, 2023):
Converted amounts (≈) assume the structure as drawn. Residues, ends and D or L forms follow the SMILES beside them.

Assays:
[1] = test system: E. coli ATCC clinical isolates; test: microbe, parasite or virus in culture; type: cell-based; details: ATCC clinical isolates, 17 h
Description: To address the emerging antibiotic resistance issue, it is not only required to develop active antibiotics against wildtype bacteria, but also against the clinically isolated multidrug-resistant strains. Therefore, we determined whether P2 variants with a 4-fold lower MICs (P2_A5F, V7Y (P2), P2_H12_GV, P2_H12_PEG) (S12 Table) will also show improved antimicrobial activity against these multidrug-resistant strains. Since a high net positive charge could carry inherent developability challenges, we further explored the therapeutic potential of P2 variants with reduced net charge (P2_4R_GV and P2_4R_L) (S12 Table) by determining their antimicrobial activity against these clinically isolated multidrug-resistant strains. The mode of action of these derivatives remains to be inducing protein aggregation in bacteria as shown by the formation of IBs stained by pFTAA after Pept-in treatment (P2, P2-4R-GV, P2_A5F, V7Y (P2), P2_H12_GV, P2_H12_PEG) (S6A Fig) and the presence of a large number of proteins with different molecular weights in purified IBs as shown by the Coomassie staining (S6B Fig), in contrast to the absence of pFTAA staining (S6A Fig) and the presence of only two faint protein bands (S6B Fig) for buffer and control peptide treated bacteria. For clinically isolated multidrug-resistant strains, in addition to the 34 clinical isolates of E. coli ATCC, we added 12 Acinetobacter baumannii (A. baumannii) isolates and 12 Klebsiella pneumoniae (K. pneumoniae) isolates to broaden the selection of the bacterial spectrum.
The peptide MIC was determined via the broth microdilution assay according to the EUCAST guideline, using 96-well polystyrene flat-bottom microtiter plates (BD Biosciences). Briefly, a single colony was inoculated in 5 mL Mueller-Hinton (MH) medium and incubated, while shaking at 37°C, to the end-exponential growth phase. The bacterial culture was subsequently diluted to 0.005 McFarland (McF) (~1.5x10^6 CFU/mL) with fresh MH medium. […] The MIC was determined as the lowest peptide concentration without visible bacterial growth.

E. coli BL21 = details: BL21, 17 h
Summary of the method: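 EUCAST broth microdilution in Mueller-Hinton medium; end-exponential culture diluted to 0.005 McF (~1.5x10^6 CFU/mL) before 1:1 mixing with two-fold peptide dilutions (0.75 to 100 μg/mL), triplicates.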

[2] = test system: K. pneumoniae clinical isolates; type: cell-based, Klebsiella pneumoniae; details: 17 h
Description: To address the emerging antibiotic resistance issue, it is not only required to develop active antibiotics against wildtype bacteria, but also against the clinically isolated multidrug-resistant strains. Therefore, we determined whether P2 variants with a 4-fold lower MICs (P2_A5F, V7Y (P2), P2_H12_GV, P2_H12_PEG) (S12 Table) will also show improved antimicrobial activity against these multidrug-resistant strains. Since a high net positive charge could carry inherent developability challenges, we further explored the therapeutic potential of P2 variants with reduced net charge (P2_4R_GV and P2_4R_L) (S12 Table) by determining their antimicrobial activity against these clinically isolated multidrug-resistant strains. […]
The peptide MIC was determined via the broth microdilution assay according to the EUCAST guideline, using 96-well polystyrene flat-bottom microtiter plates (BD Biosciences). […] The MIC was determined as the lowest peptide concentration without visible bacterial growth.

CC(C)C[C@H](NC(=O)CNC(=O)[C@H](CCCNC(=N)N)NC(=O)[C@@H]1CCCN1C(=O)[C@H](CCCNC(=N)N)NC(=O)[C@H](CCCNC(=N)N)NC(=O)[C@H](Cc1ccc(O)cc1)NC(=O)[C@H](CC(C)C)NC(=O)[C@H](C)NC(=O)[C@H](CC(C)C)NC(=O)CNC(=O)[C@H](CC(C)C)NC(=O)CNC(=O)[C@@H](N)CCCNC(=N)N)C(=O)NCC(=O)N[C@@H](CC(C)C)C(=O)N[C@@H](C)C(=O)N[C@@H](CC(C)C)C(=O)N[C@@H](Cc1ccc(O)cc1)C(=O)N[C@@H](CCCNC(=N)N)C(=O)N[C@@H](CCCNC(=N)N)C(=O)O [V7Y (P2)] (H-RGLGLALYRRPRGLGLALYRR-OH) was tested, and the MIC [1] was 8 µg/mL (≈ 3.29 µM), the “BL21 MIC” value (E. coli BL21) was 3.13 µg/mL and the MIC [2] was 8 µg/mL (≈ 3.29 µM).
